In patent US9883691B2, “Food and beverage products containing 1,3-propanediol and methods of modifying flavor release using 1,3-propanediol” (Kraft Foods Group Brands LLC, priority 2012, dated 2018):
Entries after “also recorded” stand apart in the source; their conditions may differ.

Tests used:
Format in all cases: physicochemical
[1] = PTR-MS headspace release with various non-aqueous liquids (diols) at 0.05:100 (Example 3); conditions: ratio 0.05:100; for PTR-MS headspace release in 1,3-butanediol: non-aqueous liquid 1,3-butanediol; for PTR-MS headspace release in 1,3-butanediol / PTR-MS headspace release in 1,3-propanediol / PTR-MS headspace release in 1,4-butanediol / PTR-MS headspace release in 1,7-heptanediol / PTR-MS headspace release in Propylene glycol: diluted in water; for PTR-MS headspace release in 1,3-propanediol: non-aqueous liquid 1,3-propanediol; for PTR-MS headspace release in 1,4-butanediol: non-aqueous liquid 1,4-butanediol; for PTR-MS headspace release in 1,7-heptanediol: non-aqueous liquid 1,7-heptanediol; for PTR-MS headspace release in Propylene glycol: non-aqueous liquid propylene glycol
Procedure: […]. The flavoring was then diluted in water for analysis. The final concentration of each compound was held constant at 8 ppm except furfuryl mercaptan was included at 1.6 ppm to maintain a constant flavor level in the resulting beverage while the non-aqueous liquid varied but the ratio of each compound to non-aqueous liquid was held constant at 0.05:100. A variety of non-aqueous liquids were evaluated, including 1,4-butandiol; 1,7-heptandiol; 1,3-butandiol, propylene glycol, and 1,3-propanediol.
Samples were analyzed by PTR-MS as described in Example 1.
Percent suppression was calculated by the following formula: (I1-3-diol−Ialternate diol)/Ialternate diol×100.

[2] = PTR-MS headspace release from stored beverages, water/solvent experiment (Example 4); conditions: beverage stored refrigerated; 1.5, 24, 48 and 72 hours; Tukey-Kramer
Procedure: 0.86 grams of the flavor concentrate was then added to 100 grams of either propylene glycol or 1,3-propanediol to provide diluted concentrates. […].
The beverages were then stored in sealed containers in a refrigerator. The container was opened five times over the course of the experiment and therefore represented a beverage in a sealed container being opened for multiple uses. 15 gram samples were weighed into a 4 ounce cup and analyzed at 1.5 hours, 24 hours, 48 hours, and 72 hours after storage.
The samples were analyzed in triplicate by PTR-MS as described below to determine impact of 1,3-propanediol or propylene glycol on release of the flavors from the beverage. The PTR-MS was performed as follows. A sampling apparatus was needed in conjunction with the PTR-MS inlet to prevent variations caused by headspace kinetics. The sampling apparatus used includes a 4 ounce sample vessel equipped with a 2-hole lid which may be sealed by an adhesive film to allow equilibration. […]. The holes were equal sized (˜2 mm diameter) and match the outer diameter of the PTR-MS inlet line. The flow of the dilution gas into the vessel was regulated by the vacuum and proportional valve of the PTR-MS inlet system. […] The 2 holes in the lid were equidistant from the edge of the vessel (˜20 mm) and ˜30 mm from each other. The PTR-MS inlet was braced by clamps in a fixed position vertically above the laboratory bench (˜55 mm) and a silicone rubber depth gauge was affixed to the PTR-MS inlet tubing and set at 18 mm. The PTR-MS inlet was consistently oriented in a vertical position […] below the inside lid of the vessel and 19 mm above the sample in the vessel. The sample vessel was then held in place during sampling according to the depth gauge on the inlet line and the vessel was subsequently supported on the bench by a 10 mm plastic spacer.
15 grams of the sample to be tested (e.g., food or beverage product containing 1,3-propanediol) are added to the vessel and the vessel is sealed and allowed to equilibrate at room temperature (˜22° C.) for 90 minutes. At the time of sampling, the seal was removed from both the sampling hole and the dilution gas hole in the lid and the vessel was immediately affixed to the PTR-MS inlet via the sampling hole. The real-time released flavor was measured from the headspace of the sample vessel for two minutes (according to the conditions listed in Table 1 above).
The data was analyzed using PTR-MS Viewer, Version 3.0.0.101 (Ionicon Analytik G.m.b.H). The point of maximum intensity for each compound of interest was determined and recorded according to the PTR-MS Viewer software. The maximum intensity in counts over the timescale for each compound of interest was used for data analysis as it reflected the static equilibrium headspace concentration in the system at the moment of seal removal. Due to the necessity of a dilution gas, the volatile concentration decreased over time as the compounds of interest re-equilibrated to a state of dynamic equilibrium in the headspace.
The statistical differences were determined by Tukey-Kramer Honest […]. […].

[3] = PTR-MS headspace release at various flavor compound to 1,3-propanediol or PG ratios (Example 2); conditions: for Percent Suppression by 1,3-propanediol: (IZ−IPG)/IPG×100; for release suppressed in the presence of 1,3-propanediol: 10% cut-off for significant difference, relative to PG
Procedure: The compounds listed below in Table 3 were added together to provide a liquid flavoring to analyze the role, if any, of the amount of 1,3-propanediol on flavor release. […] The amount of each flavor compound in the beverage was held constant at 8 ppm except furfuryl mercaptan was included at 1.6 ppm while the amount of propylene glycol or 1,3-propanediol varied.
The percent suppression was calculated using the following formula: (IZ−IPG)/IPG×100, where I is peak height, “Z” is 1,3-propanediol and “PG” is propylene glycol.

[4] = PTR-MS headspace release in neat solvent, solvent/solvent experiment (Example 5); set-up: key to Release Differences: “Z” indicates that 1,3-propanediol had higher equilibrium maximum (meaning more of the flavor was released in 1,3-propanediol); “P” indicates that propylene glycol had higher equilibrium maximum; “-” indicates no statistical difference (95% significance) between the two samples; conditions: 1.5 hrs equilibration; for Release Differences: 1,3-propanediol versus propylene glycol as sole solvent, 95% significance
Procedure: […]. Then the head space was analyzed as described above.
0.86 grams of the concentrate was added to 100 grams of either propylene glycol or 1,3-propanediol to provide a 1,3-propanediol diluted concentrate or propylene glycol diluted concentrate. The diluted concentrates were then further diluted as outlined in Table 10 below.
A 15 gram sample was weighed into a 4 oz vessel and analyzed at 1.5 hrs. of equilibration time as described in the method of Example 4.

[5] = ratio 0.005:100, negative = suppressed vs PG
[6] = flavor/1,3-propanediol ratio of 0.05:100

Row | Structure (SMILES) | PTR-MS headspace release in 1,3-butanediol [1] | PTR-MS headspace release in 1,3-propanediol [1] | PTR-MS headspace release in 1,4-butanediol [1] | PTR-MS headspace release in 1,7-heptanediol [1] | PTR-MS headspace release in Propylene glycol [1] | Percent suppression by 1,3-butanediol relative to 1,4-butanediol [1] [%] | effect of 1,3-propanediol on flavor release relative to propylene glycol, water/solvent [2] | Percent Suppression by 1,3-propanediol [3, 5] [%] | Percent Suppression by 1,3-propanediol ([3]; ratio 0.05:100) [%] | Percent Suppression by 1,3-propanediol ([3]; ratio 5:100) [%] | Percent Suppression by 1,3-propanediol ([3]; ratio 15:100) [%] | Release Differences [4] | release suppressed in the presence of 1,3-propanediol [3] | effect of 1,3-propanediol on release [3, 6] | release in 1,3-propanediol versus propylene glycol, solvent/solvent [4] | effect of 1,3-propanediol on release ([3]; flavor to 1,3-propanediol ratio of about 0.005:100 to 15:100) | effect of 1,3-propanediol on release ([3]; ratio 0.005:100)
1 | SCc1ccco1 [Furfuryl mercaptan] | 1.3 | 0.55 | 0.3 | 2.1 | 0.51 | 73.9 | significantly increase the rate of release | 31.8 | 7.8 | 15.9 | −13.1 |  |  |  |  |  | 
2 | CCCCCCCCO [Octanol] | 4.0 | 1.05 | 5.1 | 6.2 | 1.19 | −27.5 | significantly suppressed release; also recorded: released faster in propylene glycol | 8.5 | −11.4 | −19.1 | −0.6 | P |  |  | no significant difference |  | 
3 | CC(C)=CCCC(C)=CC=O [Citral, 3,7-dimethyl-2,6-octadienal] | 6.0 | 5.83 | 13.5 | 24.3 | 18.80 | −124.2 | significantly suppressed release | −70.0 | −69.0 | −45.4 | −58.2 |  | suppressed |  |  | significant suppression effect | still suppressed
4 | CCCCCCCCCC(=O)OCC [Ethyl decanoate] | 117.0 | 23.9 | 258.0 | 131.3 | 16.84 | −120.5 | little effect | −2.0 | 41.9 | 17.8 | −12.4 |  |  |  |  |  | 
5 | CCCCCCCC=O [Octanal] | 42.9 | 10.70 | 56.0 | 67.0 | 11.95 | −30.5 | significantly suppressed release | 2.6 | −10.5 | −21.1 | −2.5 |  |  |  |  |  | 
6 | C=C(C)[C@H]1CC=C(C)CC1 [Limonene] | 13.5 | 4.9 | 59.7 | 59.5 | 6.55 | −343.5 | little effect; also recorded: no significant difference | −0.1 | −25.2 | −34.8 | 23.5 | Z | suppressed |  | released faster in 1,3-propanediol |  | 
7 | COc1ccccc1O [Guaiacol] | 28.4 | 18.95 | 39.9 | 36.2 | 36.50 | −40.3 | significantly suppressed release | −3.4 | −48.1 | −19.9 | 0.2 |  | suppressed | significant suppression effect |  |  | 

More lines, now with the values ahead:

Row | PTR-MS headspace release in 1,3-butanediol [1] | PTR-MS headspace release in 1,3-propanediol [1] | PTR-MS headspace release in 1,4-butanediol [1] | PTR-MS headspace release in 1,7-heptanediol [1] | PTR-MS headspace release in Propylene glycol [1] | Percent suppression by 1,3-butanediol relative to 1,4-butanediol [1] [%] | effect of 1,3-propanediol on flavor release relative to propylene glycol, water/solvent [2] | Percent Suppression by 1,3-propanediol [3, 5] [%] | Percent Suppression by 1,3-propanediol ([3]; ratio 0.05:100) [%] | Percent Suppression by 1,3-propanediol ([3]; ratio 5:100) [%] | Percent Suppression by 1,3-propanediol ([3]; ratio 15:100) [%] | Release Differences [4] | release suppressed in the presence of 1,3-propanediol [3] | effect of 1,3-propanediol on release [3, 6] | release in 1,3-propanediol versus propylene glycol, solvent/solvent [4] | effect of 1,3-propanediol on release ([3]; flavor to 1,3-propanediol ratio of about 0.005:100 to 15:100) | effect of 1,3-propanediol on release ([3]; ratio 0.005:100) | Structure (SMILES)
8 | 16.9 | 9.90 | 15.6 | 13.4 | 13.70 | 8.0 | little effect | −0.5 | −27.7 | −1.7 | −9.0 | P | suppressed | significant suppression effect |  |  |  | CC(=O)O [Acetic acid]
9 | 12.3 | 9.89 | 20.5 | 22.0 | 17.85 | −67.3 | little effect | 10.2 | −44.6 | −17.8 | −5.6 | Z | suppressed | significant suppression effect |  |  |  | Cc1nc(C)c(C)nc1C [Tetramethyl pyrazine]
